# In patent publication US20060116399A1, “Diarylmethylidene piperidine derivatives, preparations thereof and uses thereof” (AstraZeneca AB, priority 2003, published 2006):
# Read-outs that look alike come from different tables or passages of the source.
# Legend:
# human δ receptor = biological target: T1, human δ receptor (Homo sapiens, UniProt P41143); assay: GTP[γ]35S binding functional assay, HEK-293S membranes; type: biochemical
# T1 construct: expressed in transfected cells
# Method: Human 293S cells expressing cloned human κ, δ and μ receptors and neomycin resistance are grown in suspension at 37° C. and 5% CO2 in shaker flasks containing calcium-free DMEM10% FBS, 5% BCS, 0.1% Pluronic F-68, and 600 μg/ml geneticin.
# Cells are pelleted and resuspended in lysis buffer (50 mM Tris, pH 7.0, 2.5 mM EDTA, with PMSF added just prior to use to 0.1 mM from a 0.1 M stock in ethanol), incubated on ice for 15 min, then homogenized with a polytron for 30 sec. The suspension is spun at 1000 g (max) for 10 min at 4° C. The supernatant is saved on ice and the pellets resuspended and spun as before. The supernatants from both spins are combined and spun at 46,000 g (max) for 30 min. The pellets are resuspended in cold Tris buffer (50 mM Tris/Cl, pH 7.0) and spun again. The final pellets are resuspended in membrane buffer (50 mM Tris, 0.32 M sucrose, pH 7.0). Aliquots (1 ml) in polypropylene tubes are frozen in dry ice/ethanol and stored at −70° C. until use. The protein concentrations are determined by a modified Lowry assay with sodium dodecyl sulfate.
# The agonist activity of the compounds is measured by determining the degree to which the compounds receptor complex activates the binding of GTP to G-proteins to which the receptors are coupled. In the GTP binding assay, GTP[γ]^35S is combined with test compounds and membranes from HEK-293S cells expressing the cloned human opioid receptors or from homogenised rat or mouse brain. Agonists stimulate GTP[γ]^35S binding in these membranes. The EC50 and Emax values of compounds are determined from dose-response curves. Right shifts of the dose response curve by the delta antagonist naltrindole are performed to verify that agonist activity is mediated through delta receptors. For human δ receptor functional assays, EC50 (low) is measured when the human δ receptors used in the assay were expressed at lower levels in comparison with those used in determining EC50 (high). The Emax values were determined in relation to the standard δ agonist SNC80, i.e., higher than 100% is a compound that have better efficacy than SNC80.
# Rat brain membranes are thawed at 37° C., passed 3 times through a 25-gauge blunt-end needle and diluted in Mhe GTPγS binding (50 mM Hepes, 20 mM NaOH, 100 mM NaCl, 1 mM EDTA, 5 mM MgCl2, pH 7.4, Add fresh: 1 mM DTT, 0.1% BSA). 120 μM GDP final is added membranes dilutions. The EC50 and Emax of compounds are evaluated from 10-point dose-response curves done in 300 μl with the appropriate amount of membrane protein (20 μg/well) and 100000-130000 dpm of GTPγ^5S per well (0.11-0.14 nM). The basal and maximal stimulated binding are determined in absence and presence of 3 μM SNC-80. The assay performed on HEK 293s cells stably expressing cloned Delta receptors is done in a slightly different buffer (50 mM Hepes, 20 mM NaOH, 200 mM NaCl, 1 mM EDTA, 5 mM MgCl2, pH 7.4, Add fresh: 0.5% BSA, no DTT) and with a 3 μM final conc. of GDP.
# cloned human μ receptor = biological target: T2, cloned human μ receptor (Homo sapiens, UniProt P35372); assay: μ receptor binding assay, displacement of 125I-FK33824
# T2 construct: expressed in transfected cells; host or cells: human HEK-293S cells, neomycin resistance
# cloned human δ receptor = biological target: T3, cloned human δ receptor (Homo sapiens, UniProt P41143); assay: δ receptor binding assay, displacement of 125I-Deltorphin II
# T3 construct: expressed in transfected cells
# cloned human κ receptor = cloned human κ receptor (Homo sapiens, UniProt P41145); assay: κ receptor binding assay, displacement of 125I-DPDYN; conditions: Table 1
# [1] = Table 2, lower receptor expression, relative to SNC80, range over several compounds, read-out: Human δ % Emax (low)
# T2 sequence (P35372 whole entry): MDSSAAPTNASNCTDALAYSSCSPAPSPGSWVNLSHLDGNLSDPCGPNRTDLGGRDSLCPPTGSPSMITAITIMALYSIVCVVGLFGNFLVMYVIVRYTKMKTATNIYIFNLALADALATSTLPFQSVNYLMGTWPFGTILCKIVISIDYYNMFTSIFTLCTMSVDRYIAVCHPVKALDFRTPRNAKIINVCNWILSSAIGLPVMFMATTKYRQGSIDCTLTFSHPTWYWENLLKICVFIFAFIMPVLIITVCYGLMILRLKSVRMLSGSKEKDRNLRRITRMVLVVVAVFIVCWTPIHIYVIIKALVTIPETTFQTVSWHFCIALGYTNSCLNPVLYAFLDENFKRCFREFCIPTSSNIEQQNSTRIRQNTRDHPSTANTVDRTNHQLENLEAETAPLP
# T3 sequence (P41143 whole entry): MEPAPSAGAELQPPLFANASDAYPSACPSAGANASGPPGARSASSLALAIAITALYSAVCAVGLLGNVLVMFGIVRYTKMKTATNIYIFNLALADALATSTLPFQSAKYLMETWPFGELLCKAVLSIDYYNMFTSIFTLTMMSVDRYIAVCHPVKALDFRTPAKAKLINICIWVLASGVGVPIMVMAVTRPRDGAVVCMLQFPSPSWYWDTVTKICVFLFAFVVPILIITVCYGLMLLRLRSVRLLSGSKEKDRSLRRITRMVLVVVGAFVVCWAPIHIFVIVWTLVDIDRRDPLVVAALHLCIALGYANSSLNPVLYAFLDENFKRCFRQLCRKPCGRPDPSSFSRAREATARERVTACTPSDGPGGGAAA
# T1 sequence (P41143 whole entry): as above
# Chain of cloned human κ receptor (P41145 whole entry): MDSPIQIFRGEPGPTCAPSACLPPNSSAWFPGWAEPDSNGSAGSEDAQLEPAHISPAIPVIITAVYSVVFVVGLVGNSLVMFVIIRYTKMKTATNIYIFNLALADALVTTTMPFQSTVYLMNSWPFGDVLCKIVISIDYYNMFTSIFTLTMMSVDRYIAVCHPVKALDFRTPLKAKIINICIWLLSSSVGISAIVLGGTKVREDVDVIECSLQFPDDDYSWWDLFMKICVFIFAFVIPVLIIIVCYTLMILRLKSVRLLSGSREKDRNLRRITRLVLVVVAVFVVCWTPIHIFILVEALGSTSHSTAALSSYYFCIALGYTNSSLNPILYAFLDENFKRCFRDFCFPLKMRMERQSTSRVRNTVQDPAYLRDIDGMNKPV
Structure (SMILES),EC50 (human δ receptor),Emax (human δ receptor; [1]),IC50 (cloned human μ receptor),IC50 (cloned human δ receptor),"Emax (human δ receptor; Table 1, higher receptor expression, relative to standard δ agonist SNC80, read-out: Human δ % EMax (high))",IC50 (cloned human κ receptor)
"CCN(CC)C(=O)c1ccc(C(=C2CCN(Cc3ccco3)CC2)c2cccc(NC(=O)OC)c2)cc1 [Compound 2, [3-[[4-[(diethylamino)carbonyl]phenyl][1-(2-furanylmethyl)-4-piperidinylidene]methyl]phenyl]-carbamic acid, methyl ester]",1.8 to 5.97 nM,93.7 to 128%,62.8 to 498 nM,0.3 to 0.35 nM,,
"CCN(CC)C(=O)c1ccc(C(=C2CCN(Cc3cncs3)CC2)c2cccc(NC(=O)OC)c2)cc1 [Compound 5, methyl 3-{{4-[(diethylamino)carbonyl]phenyl}[1-(1,3-thiazol-5-ylmethyl)piperidin-4-ylidene]methyl}phenylcarbamate]",1.8 to 5.97 nM,93.7 to 128%,62.8 to 498 nM,0.3 to 0.35 nM,,
"CCN(CC)C(=O)c1ccc(C(=C2CCN(Cc3cccs3)CC2)c2cccc(NC(=O)OC)c2)cc1 [Compound 1, [3-[[4-[(diethylamino)carbonyl]phenyl][1-(2-thienylmethyl)-4-piperidinylidene]methyl]phenyl]-carbamic acid, methyl ester]",1.8 to 5.97 nM,93.7 to 128%,62.8 to 498 nM,0.3 to 0.35 nM,,
"CCN(CC)C(=O)c1ccc(C(=C2CCN(Cc3ccccc3)CC2)c2cccc(NC(=O)OC)c2)cc1 [Compound 3, [3-[[4-[(diethylamino)carbonyl]phenyl][1-(phenylmethyl)-4-piperidinylidene]methyl]phenyl]-carbamic acid, methyl ester]",0.62 nM,,28.7 nM,0.48 nM,91.7%,188 nM
